The nature of assay [1]: Sensory evaluation of carbonation sensation imparting in grape-flavored mouthwash. Type of assay: in vivo. The conditions noted are these: for Carbonation sensation imparting evaluation result: grape-flavored mouthwash, average score of five panelists, 1 to 5. As for the experimental part: In the following Examples, the action and effect were verified using a value obtained by calculating an average score of scores for imparting or enhancing fizziness by sensory evaluation conducted by specialized panelists. The expression “1 point” in the evaluation is the evaluation in the case where no component is added at all (no addition).
Diethyl sebacate was separately added to grape-flavored mouthwash prepared according to the formulation shown in Table 18 so as to reach a concentration shown in Table 19 below, and sensory evaluation was performed by five panelists to determine the extent to which fizziness was imparted as compared with a control in which diethyl sebacate was not added.

Assay [2] addresses T1, human TRPA1 (Homo sapiens, UniProt O75762).
T1 construct: doxycycline-inducible Flp-In T-REx 293 cells; Fluo-4 calcium assay
Nature of the assay: Evaluation of human TRPA1 activity in stably expressing cells (Fluo 4-AM calcium fluorescence). Type of assay: cell-based. The conditions noted are these: human TRPA1 stably expressing Flp-In 293 cells; fluorescence 485/525 nm, 27° C. An excerpt:
(§1) The full-length human TRPA1 gene (GenBank Accession Number: NM_007332) was amplified from plasmid pFN21AB7348 (manufactured by Kazusa DNA Research Institute), and the full-length human TRPV1 gene (GenBank Accession Number: NM_018727) was amplified from pFN21AE2418 (manufactured by Kazusa DNA Research Institute) using PCR. The obtained PCR product was subcloned into pcDNA5/FRT/TO (manufactured by ThermoFisher Scientific), and then introduced into Flp-In 293 cells (manufactured by Thermo Fisher Scientific) using a Flp-In T-REX system (manufactured by Thermo Fisher Scientific) to prepare a human TRPA1 stably expressing cell line and a human TRPV1 stably expressing cell line […]
(§2) After replacing the culture medium with buffer solution, fluorescent calcium indicator Fluo 4-AM (manufactured by Dojindo Laboratories) was added and incubated at 37° C. for 1 hour. After replacing the culture solution with buffer solution again, the microplate was set to a fluorescence microplate reader FlexStation 3 (manufactured by Molecular Devices, LLC.). Diethyl sebacate was added at various concentrations at an internal temperature of 27° C., and the fluorescence intensity at a wavelength of 525 nm when excited at a wavelength of 485 nm was measured. […]

The target in assay [3] is T2, human TRPV1 (Homo sapiens, UniProt Q8NER1).
T2 construct: doxycycline-inducible Flp-In T-REx 293 cells; Fluo-4 calcium assay
T2 sequence (Q8NER1 whole entry): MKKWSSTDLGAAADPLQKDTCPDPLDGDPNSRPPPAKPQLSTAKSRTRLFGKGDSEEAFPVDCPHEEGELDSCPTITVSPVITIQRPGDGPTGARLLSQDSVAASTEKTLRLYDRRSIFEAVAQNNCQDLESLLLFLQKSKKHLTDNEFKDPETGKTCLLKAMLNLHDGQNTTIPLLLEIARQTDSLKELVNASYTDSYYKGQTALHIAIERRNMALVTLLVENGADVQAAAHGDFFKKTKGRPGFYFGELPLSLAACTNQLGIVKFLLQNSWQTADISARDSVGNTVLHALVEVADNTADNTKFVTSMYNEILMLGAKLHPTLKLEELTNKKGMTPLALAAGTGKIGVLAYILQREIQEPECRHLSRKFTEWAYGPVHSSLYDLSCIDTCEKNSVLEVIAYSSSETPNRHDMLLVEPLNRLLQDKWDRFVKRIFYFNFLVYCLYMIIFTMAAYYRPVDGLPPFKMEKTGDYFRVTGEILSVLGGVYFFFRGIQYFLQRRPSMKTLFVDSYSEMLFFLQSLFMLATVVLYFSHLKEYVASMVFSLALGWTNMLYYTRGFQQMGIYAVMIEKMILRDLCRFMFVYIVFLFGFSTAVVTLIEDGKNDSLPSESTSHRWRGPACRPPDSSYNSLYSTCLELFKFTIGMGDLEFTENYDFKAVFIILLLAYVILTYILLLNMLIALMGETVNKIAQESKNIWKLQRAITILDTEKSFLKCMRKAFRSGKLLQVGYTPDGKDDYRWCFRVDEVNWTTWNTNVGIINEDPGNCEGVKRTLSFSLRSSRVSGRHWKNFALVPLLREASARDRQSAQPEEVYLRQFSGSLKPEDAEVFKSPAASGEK
Nature of the assay: Evaluation of human TRPV1 activity in stably expressing cells (Fluo 4-AM calcium fluorescence). The conditions noted are these: human TRPV1 stably expressing Flp-In 293 cells; fluorescence 485/525 nm, 27° C. In kind it is cell-based.
From the text: as §1, §2

Each structure is given as a SMILES string. “Also recorded” adds a separate entry of the source.

T1 sequence (O75762 whole entry): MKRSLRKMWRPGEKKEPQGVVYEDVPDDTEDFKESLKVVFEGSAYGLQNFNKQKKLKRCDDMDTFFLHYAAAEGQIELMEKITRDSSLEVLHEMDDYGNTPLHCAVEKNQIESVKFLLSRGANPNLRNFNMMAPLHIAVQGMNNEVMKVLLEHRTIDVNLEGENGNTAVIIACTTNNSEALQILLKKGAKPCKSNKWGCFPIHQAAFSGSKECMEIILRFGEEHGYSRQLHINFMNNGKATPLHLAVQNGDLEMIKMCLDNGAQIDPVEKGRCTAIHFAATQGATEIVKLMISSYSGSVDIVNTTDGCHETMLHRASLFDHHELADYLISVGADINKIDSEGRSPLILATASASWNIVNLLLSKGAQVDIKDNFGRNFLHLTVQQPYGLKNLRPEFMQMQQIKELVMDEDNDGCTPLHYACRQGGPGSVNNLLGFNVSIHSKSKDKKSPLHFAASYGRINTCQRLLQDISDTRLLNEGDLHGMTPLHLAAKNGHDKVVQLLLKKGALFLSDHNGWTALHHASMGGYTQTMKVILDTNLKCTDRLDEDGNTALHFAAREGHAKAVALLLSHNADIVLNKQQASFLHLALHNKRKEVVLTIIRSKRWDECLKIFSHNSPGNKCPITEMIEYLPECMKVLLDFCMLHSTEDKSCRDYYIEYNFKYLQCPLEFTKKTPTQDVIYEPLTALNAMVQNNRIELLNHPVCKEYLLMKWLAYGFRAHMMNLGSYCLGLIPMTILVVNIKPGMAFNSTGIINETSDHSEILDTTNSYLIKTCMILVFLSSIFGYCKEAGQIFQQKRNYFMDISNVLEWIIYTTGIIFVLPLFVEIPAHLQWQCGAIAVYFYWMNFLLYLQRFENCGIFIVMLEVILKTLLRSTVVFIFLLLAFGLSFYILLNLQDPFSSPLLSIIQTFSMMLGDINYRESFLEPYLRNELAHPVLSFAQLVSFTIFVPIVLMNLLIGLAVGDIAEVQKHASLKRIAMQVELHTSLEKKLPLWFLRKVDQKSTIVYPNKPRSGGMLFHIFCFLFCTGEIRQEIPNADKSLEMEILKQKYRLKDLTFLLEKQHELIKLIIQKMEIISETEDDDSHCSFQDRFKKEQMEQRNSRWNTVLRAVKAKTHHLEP

With `CCOC(=O)CCCCCCCCC(=O)OCC` [Diethyl sebacate, diethyl sebacate], the “Carbonation sensation imparting evaluation result” value in assay [1] (0.1 ppm) is given as 1.8 points; in assay [1] (1 ppm), 2.2 points; in assay [1] (5 ppm) it was 2.8 points; in assay [1] (10 ppm), 3.4 points; in assay [1] (50 ppm), 4.0 points; in assay [1] (100 ppm) it was 3.8 points. Further, in assay [1] (500 ppm), the “Carbonation sensation imparting evaluation result” value is reported as 3.0 points. In assay [1] (mouthwash), the “amelioration of mouthfeel (in words)” value is reported as “effect of ameliorating the mouthfeel was also confirmed”. Further, the “fizziness imparting (in words)” value in assay [1] (mouthwash) is on record as “fizziness can be imparted to the mouthwash”. Further, in assay [2], the TRPA1 activity entry is “high TRPA1 activity; also recorded: respond”. Moreover, the TRPV1 activity result in assay [3] is “high TRPA1 activity and TRPV1 activity; also recorded: respond”.

Values taken from patent US20260293949A1, “CARBONATION SENSATION IMPARTING OR ENHANCING AGENT” (TAKASAGO INTERNATIONAL CORPORATION, priority 2022, published 2026).
